Results reported in patent publication US8466145B2, “Dipeptidyl peptidase IV inhibitors” (Orchid Chemicals & Pharmaceuticals Limited, priority 2009, dated 2013).

Key:
C57BL/6 mice = assay: Oral glucose tolerance test; type: in vivo; conditions: compound 10 mg/kg; for Antihyperglycemic activity, reduction in AUC (blood glucose), Time 6.00 hr: glucose 2 g/kg challenge 6.00 hr after compound administration, NA = No activity
Experimental: Effect of compound on glucose tolerance was examined in 7 week old C57BL/6 mice. Animals were kept for 18 h fasting and were challenged with glucose (2 g/kg) 30 min after compound (10 mg/kg) administration. Blood samples for glucose measurement were obtained by tail bleed pre dose and at serial time points after the glucose load (30, 60 and 120 minutes). Blood glucose estimation was done by using ContourTS active strips on glucometer (Bayer). To find the time response on glucose excursion, animals were challenged with glucose at different time point after compound administration (0.5, 2, 4, 6, 8, 12 or 24 hours) at blood glucose was measured at pre (0 minute) and post (30, 60 and 120 minutes) glucose load.
Results of blood glucose were expressed as area under curve (AUC) was calculated using Prism software.

[1] = target: T1, human recombinant Dipeptidyl peptidase IV enzyme (hrDPP IV) (Homo sapiens, UniProt P27487); assay: DPP IV assay, cleavage of H-Gly-Pro-AMC by human recombinant DPP-IV enzyme; type: biochemical; conditions: for inhibition at 0.3 µM: 300 nM compound concentration
T1 construct: purchased R&D systems
Experimental: DPP IV activity was determined by the cleavage rate of 7-amino 4-methylcoumarin (AMC) from the substrate H-Gly-Pro-AMC. In brief, the assay was conducted by adding 3 ng of human recombinant Dipeptidyl peptidase IV enzyme (hrDPP IV, available commercially from R&D systems) in 70 μL of the assay buffer (25 mM HEPES, 140 mM NaCl and 1% BSA, pH 7.8) to a 96 well black flat bottom microtitre plate. Test compounds were added as 10 μL additions to all wells except blank and total activity wells. After incubation of test substance with enzyme for 60 minutes at room temperature, 10 μL of 100 μM substrate H-Gly-Pro-AMC was added. After mixing, the plate was left for 20 minutes at room temperature. Then the reaction was terminated by addition of 10 μL of 25% glacial acetic acid. Fluorescence was measured using Spectra Max Gemini XS (Molecular Devices, USA) at an excitation filter of 360 nm and emission filter of 460 nm.
Test compounds dissolved in DMSO were diluted with assay buffer at different concentrations and tested in duplicates. Percentage inhibition was calculated with respect to total activity. IC50 value was calculated using Prism Software.

[2] = target: T2, human recombinant Dipeptidyl peptidase 8 enzyme (hrDPP 8) (Homo sapiens, UniProt Q6V1X1); assay: DPP 8 assay, cleavage of H-Ala-Pro-AFC; type: biochemical; conditions: for Selectivity (Fold) DPP 8: selectivity for DPP-IV over DPP 8
T2 construct: purchased R&D systems
Experimental: DPP 8 activity was determined by the cleavage rate of 7-amino 4-fluoromethylcoumarin (AFC) from the substrate H-Ala-Pro-AFC. In brief, the assay was conducted by adding 30 ng of human recombinant Dipeptidyl peptidase 8 enzyme (hrDPP 8, available commercially from R&D systems) in 70 μL of the assay buffer (50 mM TRIS and 5 mM EDTA, pH 7.7) to a 96 well black flat bottom microtitre plate. Test compound was added as 10 μL additions to all wells except blank and total activity wells. After incubation of test substance with enzyme for 30 minutes at room temperature, 10 μL of 100 μM substrate H-Ala-Pro-AFC was added. After mixing, the plate was left for 30 minutes at room temperature. Then the reaction was terminated by addition of 10 μL of 25% Glacial Acetic Acid. Fluorescence was measured using Spectra Max Gemini XS (Molecular Devices, USA) at an excitation filter of 400 nm and emission filter of 505 nm.
Test compound dissolved in DMSO were diluted with assay buffer at different concentrations and tested in duplicates. Percentage inhibition was calculated with respect to total activity. IC50 value was calculated using Prism Software.

[3] = target: T3, human recombinant Dipeptidyl peptidase 9 enzyme (hrDPP 9) (Homo sapiens, UniProt Q86TI2); assay: DPP 9 assay, cleavage of H-Gly-Pro-AMC; type: biochemical; conditions: for Selectivity (Fold) DPP 9: selectivity for DPP-IV over DPP 9
T3 construct: purchased R&D systems
Experimental: DPP 9 activity was determined by the cleavage rate of 7-amino 4-methylcoumarin (AMC) from the substrate H-Gly-Pro-AMC. In brief, the assay was conducted by adding 10 ng of human recombinant Dipeptidyl peptidase 9 enzyme (hrDPP 9, available commercially from R&D systems) in 70 μL of the assay buffer (50 mM TRIS and 5 mM EDTA, pH 7.7) to a 96 well black flat bottom microtitre plate. Test compound was added as 10 μL additions to all wells except blank and total activity wells. After incubation of test substance with enzyme for 30 minutes at room temperature, 10 μL of 100 μM substrate H-Gly-Pro-AMC was added. After mixing, the plate was left for 30 minutes at room temperature. Then the reaction was terminated by addition of 10 μL of 25% Glacial Acetic Acid. Fluorescence was measured using Spectra Max Gemini XS (Molecular Devices, USA) at an excitation filter of 360 nm and emission filter of 460 nm.
Test compound dissolved in DMSO were diluted with assay buffer at different concentrations and tested in duplicates. Percentage inhibition was calculated with respect to total activity. IC50 value was calculated by using Prism Software.

T2 sequence (Q6V1X1 whole entry): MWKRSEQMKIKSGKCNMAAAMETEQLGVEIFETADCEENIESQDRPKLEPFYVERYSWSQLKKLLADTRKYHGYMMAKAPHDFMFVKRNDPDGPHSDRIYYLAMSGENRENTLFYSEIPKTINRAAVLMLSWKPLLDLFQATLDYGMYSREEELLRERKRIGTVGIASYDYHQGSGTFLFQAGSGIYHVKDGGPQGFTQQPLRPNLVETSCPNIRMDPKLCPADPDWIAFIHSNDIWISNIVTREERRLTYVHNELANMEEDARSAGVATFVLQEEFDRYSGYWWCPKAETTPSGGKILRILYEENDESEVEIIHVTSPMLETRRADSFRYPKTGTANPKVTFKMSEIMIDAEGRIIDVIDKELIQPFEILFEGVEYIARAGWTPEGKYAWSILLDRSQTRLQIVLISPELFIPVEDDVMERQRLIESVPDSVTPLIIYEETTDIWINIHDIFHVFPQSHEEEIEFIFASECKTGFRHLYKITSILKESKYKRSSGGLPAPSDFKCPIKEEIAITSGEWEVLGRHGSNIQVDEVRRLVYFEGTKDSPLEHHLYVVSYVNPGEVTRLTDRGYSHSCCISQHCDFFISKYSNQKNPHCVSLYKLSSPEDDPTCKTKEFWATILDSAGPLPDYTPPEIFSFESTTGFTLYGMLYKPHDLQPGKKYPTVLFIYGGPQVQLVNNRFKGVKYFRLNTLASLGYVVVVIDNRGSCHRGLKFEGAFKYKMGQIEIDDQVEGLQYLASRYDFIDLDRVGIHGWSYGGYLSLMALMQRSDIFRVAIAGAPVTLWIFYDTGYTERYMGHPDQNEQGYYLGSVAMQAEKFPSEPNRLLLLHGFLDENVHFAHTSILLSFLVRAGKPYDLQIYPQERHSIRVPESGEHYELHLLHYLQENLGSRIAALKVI
T3 sequence (Q86TI2 whole entry): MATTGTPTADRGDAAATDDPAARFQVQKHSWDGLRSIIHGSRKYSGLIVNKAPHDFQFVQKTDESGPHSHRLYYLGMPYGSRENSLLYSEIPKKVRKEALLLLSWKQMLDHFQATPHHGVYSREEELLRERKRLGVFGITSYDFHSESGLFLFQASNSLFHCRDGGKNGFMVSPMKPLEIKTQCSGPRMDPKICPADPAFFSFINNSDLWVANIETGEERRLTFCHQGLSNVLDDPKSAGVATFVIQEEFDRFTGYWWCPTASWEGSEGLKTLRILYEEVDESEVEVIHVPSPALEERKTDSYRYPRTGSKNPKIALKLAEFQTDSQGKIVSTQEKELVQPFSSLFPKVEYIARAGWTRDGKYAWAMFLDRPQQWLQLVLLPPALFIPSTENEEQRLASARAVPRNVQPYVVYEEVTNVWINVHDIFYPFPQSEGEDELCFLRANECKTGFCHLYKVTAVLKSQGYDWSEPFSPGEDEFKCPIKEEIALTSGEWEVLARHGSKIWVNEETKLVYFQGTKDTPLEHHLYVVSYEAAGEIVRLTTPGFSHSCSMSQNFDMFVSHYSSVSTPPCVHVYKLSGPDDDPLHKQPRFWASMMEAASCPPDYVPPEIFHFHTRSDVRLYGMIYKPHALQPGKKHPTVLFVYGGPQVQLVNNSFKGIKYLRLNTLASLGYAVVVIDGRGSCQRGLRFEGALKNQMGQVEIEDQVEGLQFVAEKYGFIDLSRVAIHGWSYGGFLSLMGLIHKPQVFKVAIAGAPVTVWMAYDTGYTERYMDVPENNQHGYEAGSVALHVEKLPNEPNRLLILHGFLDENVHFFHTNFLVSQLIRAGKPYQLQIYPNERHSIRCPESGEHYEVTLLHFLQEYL
T1 sequence (P27487 whole entry): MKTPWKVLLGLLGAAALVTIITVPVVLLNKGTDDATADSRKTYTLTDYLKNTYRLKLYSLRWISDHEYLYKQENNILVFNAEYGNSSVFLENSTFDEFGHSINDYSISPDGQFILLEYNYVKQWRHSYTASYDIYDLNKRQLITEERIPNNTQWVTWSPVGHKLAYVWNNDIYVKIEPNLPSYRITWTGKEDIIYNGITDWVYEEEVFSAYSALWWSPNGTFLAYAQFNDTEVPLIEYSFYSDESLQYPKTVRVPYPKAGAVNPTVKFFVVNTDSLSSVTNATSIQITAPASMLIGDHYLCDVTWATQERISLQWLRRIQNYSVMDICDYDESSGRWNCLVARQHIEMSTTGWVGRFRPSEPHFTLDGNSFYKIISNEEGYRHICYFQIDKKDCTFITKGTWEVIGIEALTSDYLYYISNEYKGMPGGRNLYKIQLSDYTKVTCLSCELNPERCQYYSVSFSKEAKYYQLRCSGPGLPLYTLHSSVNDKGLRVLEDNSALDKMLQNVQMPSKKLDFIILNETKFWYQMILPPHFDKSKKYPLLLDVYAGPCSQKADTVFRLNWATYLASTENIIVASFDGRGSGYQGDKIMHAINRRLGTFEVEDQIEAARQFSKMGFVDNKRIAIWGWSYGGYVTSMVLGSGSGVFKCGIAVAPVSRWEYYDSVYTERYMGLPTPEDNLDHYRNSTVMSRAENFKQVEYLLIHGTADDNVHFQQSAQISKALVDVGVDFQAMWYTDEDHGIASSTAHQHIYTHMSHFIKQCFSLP

SMILES | melting point [°C] | IC50 [1] [nM] | inhibition at 0.3 µM [1] [%] | Selectivity (Fold) DPP 9 [3] [Fold] | other results
CC1(NCC(=O)N2C[C@@H](F)C[C@H]2C#N)CCC(CS(=O)(=O)c2ccc(S(C)(=O)=O)cc2)C1(C)C (stereo in doubt) [Example 45, (2S,4S)-4-Fluoro-1-(2-((1S,3R)-1,2,2-trimethyl-3-((4-(methylsulfonyl)phenylsulfonyl)methyl)cyclopentylamino)acetyl)pyrrolidine-2-carbonitrile] | 211 to 216 | 59 |  |  | IC50 ([2]; human recombinant DPP 8, read-out: DPP 8 (cell printed in μM in the Selectivity column)): > 300 µM; IC50 ([3]; human recombinant DPP 9, read-out: DPP 9 (cell printed in μM in the Selectivity column)): > 300 µM
CC1(C)[C@H](CN2CCCCS2(=O)=O)CC[C@]1(C)NCC(=O)N1C[C@@H](F)C[C@H]1C#N [Example 30, (2S,4S)-1-(2-((1S,3R)-3-[(1,1-Dioxido-1,2-thiazinan-2-yl)methyl]-1,2,2-trimethylcyclopentylamino)acetyl)-4-fluoropyrrolidine-2-carbonitrile] | 186 to 190 | 7.29 |  | >1250 | Antihyperglycemic activity, reduction in AUC (blood glucose), Time 6.00 hr (C57BL/6 mice): 30.90%
CC1(C)[C@H](Cc2noc(-c3ccncc3)n2)CC[C@]1(C)NCC(=O)N1C[C@@H](F)C[C@H]1C#N [Example 63, (2S,4S)-4-Fluoro-1-(2-((1S,3S)-1,2,2-trimethyl-3-((5-(pyridin-4-yl)-1,2,4-oxadiazol-3-yl)methyl)cyclopentylamino)acetyl)pyrrolidine-2-carbonitrile] | 180 to 184 | 19.2 | 92.6 | >1850 | 
CC1(C)[C@H](Cn2nccn2)CC[C@]1(C)NCC(=O)N1C[C@@H](F)C[C@H]1C#N [Example 12, (2S,4S)-1-(2-((1S,3R)-3-((2H-1,2,3-Triazol-2-yl)methyl)-1,2,2-trimethylcyclopentylamino)acetyl)-4-fluoropyrrolidine-2-carbonitrile] | 142 to 144 | 37.2 ± 3.67 |  |  | 
CN1C[C@]2(C)CC[C@](NCC(=O)N3C[C@@H](F)C[C@H]3C#N)(C1)C2(C)C [Example 76, (2S,4S)-4-Fluoro-1-(2-((1R,5R)-3,5,8,8-tetramethyl-3-azabicyclo[3.2.1]octan-1-ylamino)acetyl)pyrrolidine-2-carbonitrile] | 122 to 126 |  | 4.25 |  | 
CC1(C)[C@@H](CNC(=O)C2CCC(F)(F)CC2)CC[C@@]1(C)NCC(=O)N1C[C@@H](F)C[C@H]1C#N [Example 22, N-(((1S,3R)-3-(2-((2S,4S)-2-Cyano-4-fluoropyrrolidin-1-yl)-2-oxoethylamino)-2,2,3-trimethylcyclopentyl)methyl)-4,4-difluorocyclohexane carboxamide] | 193 to 195 |  | 72.7 |  | 

Further lines, with some results ahead:

melting point [°C] | IC50 [1] [nM] | inhibition at 0.3 µM [1] [%] | Selectivity (Fold) DPP 9 [3] [Fold] | SMILES | other results
130 to 131 | 19.6 | 95.7 |  | CC1(C)[C@H](Cc2noc(C(F)(F)F)n2)CC[C@]1(C)NCC(=O)N1C[C@@H](F)C[C@H]1C#N [Example 56, (2S,4S)-4-Fluoro-1-(2-((1S,3S)-1,2,2-trimethyl-3-((5-(trifluoromethyl)-1,2,4-oxadiazol-3-yl)methyl)cyclopentylamino)acetyl)pyrrolidine-2-carbonitrile] | Antihyperglycemic activity, reduction in AUC (blood glucose), Time 6.00 hr (C57BL/6 mice): 7.07%
65 to 70 | 32.3 |  | >35 | CC1(C)[C@@H](NCC(=O)N2C[C@@H](F)C[C@H]2C#N)CC[C@@]1(C)c1nc(-c2cnccn2)no1 [Example 72, (2S,4S)-4-Fluoro-1-(2-((1S,3R)-2,2,3-trimethyl-3-(3-(pyrazin-2-yl)-1,2,4-oxadiazol-5-yl)cyclopentylamino)acetyl)pyrrolidine-2-carbonitrile] | Selectivity (Fold) DPP 8 [2]: >1250 Fold
 | 13.8 | 96.2 | >7271 | CC(C)c1nc(C[C@@H]2CC[C@](C)(NCC(=O)N3C[C@@H](F)C[C@H]3C#N)C2(C)C)no1 [Example 61, (2S,4S)-4-Fluoro-1-(2-((1S,3S)-3-((5-isopropyl-1,2,4-oxadiazol-3-yl)methyl)-1,2,2-trimethylcyclopentylamino)acetyl)pyrrolidine-2-carbonitrile methanesulfonate] | 
137 to 141 | 54.7 |  | >25 | Cc1noc([C@]2(C)CC[C@H](NCC(=O)N3C[C@@H](F)C[C@H]3C#N)C2(C)C)n1 [Example 74, (2S,4S)-4-Fluoro-1-(2-((1S,3R)-2,2,3-trimethyl-3-(3-methyl-1,2,4-oxadiazol-5-yl)cyclopentylamino)acetyl)pyrrolidine-2-carbonitrile] | Selectivity (Fold) DPP 8 [2]: >900 Fold
 | 76.1 |  | >250 | CC1(C)[C@H](NCC(=O)N2C[C@@H](F)C[C@H]2C#N)CC[C@]1(C)c1nc(-c2ccc(F)cc2)no1 [Example 64, (2S,4S)-4-Fluoro-1-(2-((1R,3S)-3-(3-(4-fluorophenyl)-1,2,4-oxadiazol-5-yl)-2,2,3-trimethylcyclopentylamino)acetyl)pyrrolidine-2-carbonitrile] | Selectivity (Fold) DPP 8 [2]: >450 Fold
144 to 147 | 41 |  | >150 | Cc1noc([C@@]2(C)CC[C@@H](NCC(=O)N3C[C@@H](F)C[C@H]3C#N)C2(C)C)n1 [Example 73, (2S,4S)-4-Fluoro-1-(2-((1R,3S)-2,2,3-trimethyl-3-(3-methyl-1,2,4-oxadiazol-5-yl)cyclopentylamino)acetyl)pyrrolidine-2-carbonitrile] | Selectivity (Fold) DPP 8 [2]: >2300 Fold
131 to 133 | 4.39 |  | >9000 | Cc1nc(C[C@@H]2CC[C@](C)(NCC(=O)N3C[C@@H](F)C[C@H]3C#N)C2(C)C)no1 [Example 55, (2S,4S)-4-Fluoro-1-(2-((1S,3S)-1,2,2-trimethyl-3-((5-methyl-1,2,4-oxadiazol-3-yl)methyl)cyclopentylamino)acetyl)pyrrolidine-2-carbonitrile] | Antihyperglycemic activity, reduction in AUC (blood glucose), Time 0.50 hr (C57BL/6 mice; glucose 2 g/kg challenge 0.50 hr after compound administration): 48.30%; Antihyperglycemic activity, reduction in AUC (blood glucose), Time 4.00 hr (C57BL/6 mice; glucose 2 g/kg challenge 4.00 hr after compound administration): 45.69%; Antihyperglycemic activity, reduction in AUC (blood glucose), Time 6.00 hr (C57BL/6 mice): 28.28%; Antihyperglycemic activity, reduction in AUC (blood glucose), Time 8.00 hr (C57BL/6 mice; glucose 2 g/kg challenge 8.00 hr after compound administration): 18.63%
152 to 153 |  | 67.7 |  | CC1(C)[C@H](Cc2noc(C3CCCCC3)n2)CC[C@]1(C)NCC(=O)N1C[C@@H](F)C[C@H]1C#N [Example 59, (2S,4S)-1-(2-((1S,3S)-3-((5-Cyclohexyl-1,2,4-oxadiazol-3-yl)methyl)-1,2,2-trimethylcyclopentylamino)acetyl)-4-fluoropyrrolidine-2-carbonitrile] | 
